{"source": "patent US8993542B2", "about": "“Methods of treating viral infections” (priority 2008, dated 2015)", "key": {"HIV": {"test_system": "HIV", "test": "microbe, parasite or virus in culture", "type": "cell-based"}, "[1]": {"test": "Toxicokinetics and 7-day toxicity after oral administration of CMX157 to rats", "type": "in vivo", "settings": "for AUC0-24 / Cmax / Tmax / AUC(0-t) / AUC0-∞ / t1/2elim: rat plasma; for AUC(0-t): read-out: AUC0-24"}, "HIV-1IIIB": {"test_system": "HIV-1IIIB", "test": "TCID50 determination of drug-treated HIV-1IIIB", "type": "cell-based", "parameters": "TCID50, XTT Endpoint / TCID50, RT Endpoint / TCID50, P24 Endpoint: unit not given here", "settings": "500 nM"}}, "note": "Like-named read-outs stand apart in the source and are kept apart here.", "data": [{"smiles": "CCCCCCCCCCCCCCCCOCCCOP(=O)(O)CO[C@H](C)Cn1cnc2c(N)ncnc21", "note": "[CMX157, Hexadecyloxypropyl-9-R-[2-(Phosphonomethoxy)Propyl]-Adenine]", "values": [{"measurement": "IC50", "setting": "HIV; Human immunodeficiency virus 1, PANEL 1, WT", "result": 1.72, "unit": "nM"}, {"measurement": "IC50", "setting": "HIV; Human immunodeficiency virus 1, PANEL 2, WT", "result": 1.61, "unit": "nM"}, {"measurement": "IC50", "setting": "HIV; Human immunodeficiency virus 1, PANEL 3, 6 TAMs, no 184", "result": 8.5, "unit": "nM"}, {"measurement": "IC50", "setting": "HIV; Human immunodeficiency virus 1, PANEL 6, 6 TAMs + 184", "result": 5.21, "unit": "nM"}, {"measurement": "IC50", "setting": "HIV; Human immunodeficiency virus 1, PANEL 7, 184V", "result": 1.36, "unit": "nM"}, {"measurement": "IC50", "setting": "HIV; Human immunodeficiency virus 1, PANEL 9, 69ins, no 184", "result": 57.4, "unit": "nM"}, {"measurement": "IC50", "setting": "HIV; Human immunodeficiency virus 1, PANEL 12, 69ins + 184", "result": 11.2, "unit": "nM"}, {"measurement": "IC50", "setting": "HIV; Human immunodeficiency virus 1, PANEL 14, 65R, no 184", "result": 3.6, "unit": "nM"}, {"measurement": "IC50", "setting": "HIV; Human immunodeficiency virus 1, PANEL 15, 65R + 184V", "result": 2.71, "unit": "nM"}, {"measurement": "IC50", "setting": "HIV; Human immunodeficiency virus 1, PANEL 17, L74V", "result": 1.23, "unit": "nM"}, {"measurement": "IC50", "setting": "HIV; Human immunodeficiency virus 1, PANEL 19, L74V + M184V", "result": 0.66, "unit": "nM"}, {"measurement": "IC50", "setting": "HIV; Human immunodeficiency virus 1, PANEL 26, 151M, no 184", "result": 3.68, "unit": "nM"}, {"measurement": "IC50", "setting": "HIV; Human immunodeficiency virus 1, PANEL 28, 151M + 184", "result": 3.05, "unit": "nM"}, {"measurement": "IC50", "setting": "HIV; Human immunodeficiency virus 1, PANEL 29, L74V − SDM", "result": 1.48, "unit": "nM"}, {"measurement": "IC50", "setting": "HIV; Human immunodeficiency virus 1, PANEL 30, M184V − SDM", "result": 1.15, "unit": "nM"}, {"measurement": "IC50", "setting": "HIV; Human immunodeficiency virus 1, PANEL 31, K65R − SDM", "result": 4.73, "unit": "nM"}, {"measurement": "IC50", "setting": "HIV; Human immunodeficiency virus 1, PANEL 33, T215Y", "result": 5, "unit": "nM"}, {"measurement": "IC50", "setting": "HIV; Human immunodeficiency virus 1, PANEL 34, T215Y + M184V", "result": 1.67, "unit": "nM"}, {"measurement": "IC50", "setting": "HIV; Human immunodeficiency virus 1, PANEL 35, M41L + T215Y", "result": 3.91, "unit": "nM"}, {"measurement": "IC50", "setting": "HIV; Human immunodeficiency virus 1, PANEL 37, M41L + T215Y + M184V", "result": 2.88, "unit": "nM"}, {"measurement": "IC50", "setting": "HIV; Human immunodeficiency virus 1, PANEL 38, M41L + L210W + T215Y", "result": 5.96, "unit": "nM"}, {"measurement": "IC50", "setting": "HIV; Human immunodeficiency virus 1, PANEL 39, M41L + L210W + T215Y", "result": 6.56, "unit": "nM"}, {"measurement": "IC50", "setting": "HIV; Human immunodeficiency virus 1, PANEL 40, M41L + L210W + T215Y + M184V", "result": 1.89, "unit": "nM"}, {"measurement": "IC50", "setting": "HIV; Human immunodeficiency virus 1, PANEL 41, M41L + L210W + T215Y + M184V", "result": 2.5, "unit": "nM"}, {"measurement": "IC50", "setting": "HIV; Human immunodeficiency virus 1, PANEL 42, D67N + K70R", "result": 5.61, "unit": "nM"}, {"measurement": "IC50", "setting": "HIV; Human immunodeficiency virus 1, PANEL 44, D67N + K70R + T215F + K219E + M184V", "result": 1.92, "unit": "nM"}, {"measurement": "IC50", "setting": "HIV; Human immunodeficiency virus 1, PANEL 45, L210W + T215Y", "result": 2.79, "unit": "nM"}, {"measurement": "IC50", "setting": "HIV; Human immunodeficiency virus 1, PANEL 46, D67N + K70E", "result": 2.12, "unit": "nM"}, {"measurement": "IC50", "setting": "HIV; Human immunodeficiency virus 1, PANEL 47, D67N + K70E + M184V", "result": 1.45, "unit": "nM"}, {"measurement": "IC50", "setting": "HIV; Human immunodeficiency virus 1, PANEL 48, K70E + M184V", "result": 1.32, "unit": "nM"}, {"measurement": "IC50", "setting": "HIV; Human immunodeficiency virus 1, read-out: IC50s against NRTI resistant HIV, range over panel", "result": "1.2 to 57", "unit": "nM"}, {"measurement": "AUC0-24", "setting": "[1]; oral CMX157 10 mg/kg, day 1", "result": 441.7, "unit": "ng·h/mL"}, {"measurement": "Cmax", "setting": "[1]; oral CMX157 10 mg/kg, day 1", "result": 84.85, "unit": "ng/mL"}, {"measurement": "Tmax", "setting": "[1]; oral CMX157 10 mg/kg, day 1", "result": 0.5, "unit": "h"}, {"measurement": "Cmax", "setting": "[1]; oral CMX157 10 mg/kg, day 7", "result": 110.90, "unit": "ng/mL"}, {"measurement": "Tmax", "setting": "[1]; oral CMX157 10 mg/kg, day 7", "result": 0.5, "unit": "h"}, {"measurement": "AUC(0-t)", "setting": "[1]; oral CMX157 10 mg/kg, day 7", "result": 435, "unit": "ng·h/mL"}, {"measurement": "AUC0-24", "setting": "[1]; oral CMX157 30 mg/kg, day 1", "result": "1,832.8 ng · h/ml"}, {"measurement": "Cmax", "setting": "[1]; oral CMX157 30 mg/kg, day 1", "result": 379.00, "unit": "ng/mL"}, {"measurement": "Tmax", "setting": "[1]; oral CMX157 30 mg/kg, day 1", "result": 2.0, "unit": "h"}, {"measurement": "Cmax", "setting": "[1]; oral CMX157 30 mg/kg, day 7", "result": 202.50, "unit": "ng/mL"}, {"measurement": "Tmax", "setting": "[1]; oral CMX157 30 mg/kg, day 7", "result": 1.0, "unit": "h"}, {"measurement": "AUC(0-t)", "setting": "[1]; oral CMX157 30 mg/kg, day 7", "result": 1540, "unit": "ng·h/mL"}, {"measurement": "AUC0-24", "setting": "[1]; oral CMX157 100 mg/kg, day 1", "result": "5,408 ng · h/ml"}, {"measurement": "AUC0-∞", "setting": "[1]; oral CMX157 100 mg/kg, day 1", "result": "5,429.8 ng · h/ml"}, {"measurement": "Cmax", "setting": "[1]; oral CMX157 100 mg/kg, day 1", "result": 905.00, "unit": "ng/mL"}, {"measurement": "Tmax", "setting": "[1]; oral CMX157 100 mg/kg, day 1", "result": 2.0, "unit": "h"}, {"measurement": "t1/2elim", "setting": "[1]; oral CMX157 100 mg/kg, day 1", "result": 2.5, "unit": "h"}, {"measurement": "AUC0-∞", "setting": "[1]; oral CMX157 100 mg/kg, day 7", "result": "8,050.6 ng · h/ml"}, {"measurement": "Cmax", "setting": "[1]; oral CMX157 100 mg/kg, day 7", "result": 685.50, "unit": "ng/mL"}, {"measurement": "Tmax", "setting": "[1]; oral CMX157 100 mg/kg, day 7", "result": 2.0, "unit": "h"}, {"measurement": "t1/2elim", "setting": "[1]; oral CMX157 100 mg/kg, day 7", "result": 1.6, "unit": "h"}, {"measurement": "AUC(0-t)", "setting": "[1]; oral CMX157 100 mg/kg, day 7", "result": 8050, "unit": "ng·h/mL"}, {"measurement": "no-observed-adverse-effect level", "setting": "[1]; rats, 7 days, highest dose tested", "result": "up to 100 mg/kg/day"}, {"measurement": "Fold Decrease From VC, P24 Endpoint", "setting": "HIV-1IIIB; compound removal at 1 minute", "result": "(8.0) Fold"}, {"measurement": "Fold Decrease From VC, RT Endpoint", "setting": "HIV-1IIIB; compound removal at 1 minute", "result": "(5.2) Fold"}, {"measurement": "Fold Decrease From VC, XTT Endpoint", "setting": "HIV-1IIIB; compound removal at 1 minute", "result": "(2.2) Fold"}, {"measurement": "TCID50, P24 Endpoint", "setting": "HIV-1IIIB; compound removal at 1 minute", "result": 4529}, {"measurement": "TCID50, RT Endpoint", "setting": "HIV-1IIIB; compound removal at 1 minute", "result": 25588}, {"measurement": "TCID50, XTT Endpoint", "setting": "HIV-1IIIB; compound removal at 1 minute", "result": 2014}, {"measurement": "Fold Decrease From VC, P24 Endpoint", "setting": "HIV-1IIIB; compound removal at 15 minutes", "result": "(5.7) Fold"}, {"measurement": "Fold Decrease From VC, RT Endpoint", "setting": "HIV-1IIIB; compound removal at 15 minutes", "result": "(3.6) Fold"}, {"measurement": "Fold Decrease From VC, XTT Endpoint", "setting": "HIV-1IIIB; compound removal at 15 minutes", "result": "(4.0) Fold"}, {"measurement": "TCID50, P24 Endpoint", "setting": "HIV-1IIIB; compound removal at 15 minutes", "result": 6398}, {"measurement": "TCID50, RT Endpoint", "setting": "HIV-1IIIB; compound removal at 15 minutes", "result": 18115}, {"measurement": "TCID50, XTT Endpoint", "setting": "HIV-1IIIB; compound removal at 15 minutes", "result": 1132}, {"measurement": "Fold Decrease From VC, P24 Endpoint", "setting": "HIV-1IIIB; compound removal at 30 minutes", "result": "(2.0) Fold"}, {"measurement": "Fold Decrease From VC, RT Endpoint", "setting": "HIV-1IIIB; compound removal at 30 minutes", "result": "(2.8) Fold"}, {"measurement": "Fold Decrease From VC, XTT Endpoint", "setting": "HIV-1IIIB; compound removal at 30 minutes", "result": "(2.0) Fold"}, {"measurement": "TCID50, P24 Endpoint", "setting": "HIV-1IIIB; compound removal at 30 minutes", "result": 18115}, {"measurement": "TCID50, RT Endpoint", "setting": "HIV-1IIIB; compound removal at 30 minutes", "result": 22805}, {"measurement": "TCID50, XTT Endpoint", "setting": "HIV-1IIIB; compound removal at 30 minutes", "result": 2014}, {"measurement": "Fold Decrease From VC, P24 Endpoint", "setting": "HIV-1IIIB; compound removal at 60 minutes", "result": "(4.0) Fold"}, {"measurement": "Fold Decrease From VC, RT Endpoint", "setting": "HIV-1IIIB; compound removal at 60 minutes", "result": "(3.4) Fold"}, {"measurement": "Fold Decrease From VC, XTT Endpoint", "setting": "HIV-1IIIB; compound removal at 60 minutes", "result": "(2.5) Fold"}, {"measurement": "TCID50, P24 Endpoint", "setting": "HIV-1IIIB; compound removal at 60 minutes", "result": 9058}, {"measurement": "TCID50, RT Endpoint", "setting": "HIV-1IIIB; compound removal at 60 minutes", "result": 25588}, {"measurement": "TCID50, XTT Endpoint", "setting": "HIV-1IIIB; compound removal at 60 minutes", "result": 1600}, {"measurement": "Fold Decrease From VC, P24 Endpoint", "setting": "HIV-1IIIB; compound removal at 120 minute", "result": "(5.7) Fold"}]}]}
